The values that follow come from US9421209B2, “Kinase modulators” (Rhizen Pharmaceuticals SA, priority 2009, dated 2016).

Read-outs that look alike come from different tables or passages of the source.

By melting point is commonly meant the temperature, or range, at which the solid turns liquid. As usually defined, the inhibition is the change of the read-out against control, counted positive when it falls.

The target in one series is P110 δ/Pi3K δ (Homo sapiens, UniProt O00329). Briefly: Fluorescent (HTRF) determination of PI3K enzyme activity, δ isoform. In kind it is biochemical. Set-up: inhibition: dose or concentration left out as unconfirmed. An excerpt: Assay 1: Fluorescent determination of PI3Kinase Kinase enzyme activity
Phosphoinositide 3 kinases (PI3K) belong to a class of lipid kinases that play a critical role in the regulation of several key cellular processes. The PI3K are capable of phosphorylating the 3-hydroxy position of phosphoinositols thereby generating second messengers involved in downstream signalling events. The homogenous time resolved fluorescence (HTRF) assay allows detection of 3,4,5-triphosphate (PIP3) formed as a result of phosphorylation of phosphotidylinositol 4,5-biphosphate (PIP2) by PI3K isoforms such as α, β, γ or δ.
PI3K isoform activity for α, β, γ or δ was determined using a PI3K human HTRF™ Assay Kit (Millipore, Billerica, Mass.) with modifications. All incubations were carried out at room temperature. […] After the initial incubation, 5 μl/well of 400 μM ATP was added and incubated for an additional 30 minutes. Reaction was terminated by adding 5 μl/well stop solution (Millipore, Billerica, Mass.). Five microliters of detection mix (Millipore, Billerica, Mass.) were then added to each well and was incubated for 6-18 h in the dark. […] Data were analyzed using Graphpad Prism (Graphpad software; San Diego Calif.) for IC50 determination. Percent inhibition was calculated based on the values for the blank and enzyme controls.
For orientation: TR-FRET usually uses a lanthanide donor and a delayed reading to cut background.

The mark [1] stands for this setting: read-out: P110 δ/ Pi3K δ IC 50 nM.

Sequence of P110 δ/Pi3K δ (O00329 whole entry, canonical isoform): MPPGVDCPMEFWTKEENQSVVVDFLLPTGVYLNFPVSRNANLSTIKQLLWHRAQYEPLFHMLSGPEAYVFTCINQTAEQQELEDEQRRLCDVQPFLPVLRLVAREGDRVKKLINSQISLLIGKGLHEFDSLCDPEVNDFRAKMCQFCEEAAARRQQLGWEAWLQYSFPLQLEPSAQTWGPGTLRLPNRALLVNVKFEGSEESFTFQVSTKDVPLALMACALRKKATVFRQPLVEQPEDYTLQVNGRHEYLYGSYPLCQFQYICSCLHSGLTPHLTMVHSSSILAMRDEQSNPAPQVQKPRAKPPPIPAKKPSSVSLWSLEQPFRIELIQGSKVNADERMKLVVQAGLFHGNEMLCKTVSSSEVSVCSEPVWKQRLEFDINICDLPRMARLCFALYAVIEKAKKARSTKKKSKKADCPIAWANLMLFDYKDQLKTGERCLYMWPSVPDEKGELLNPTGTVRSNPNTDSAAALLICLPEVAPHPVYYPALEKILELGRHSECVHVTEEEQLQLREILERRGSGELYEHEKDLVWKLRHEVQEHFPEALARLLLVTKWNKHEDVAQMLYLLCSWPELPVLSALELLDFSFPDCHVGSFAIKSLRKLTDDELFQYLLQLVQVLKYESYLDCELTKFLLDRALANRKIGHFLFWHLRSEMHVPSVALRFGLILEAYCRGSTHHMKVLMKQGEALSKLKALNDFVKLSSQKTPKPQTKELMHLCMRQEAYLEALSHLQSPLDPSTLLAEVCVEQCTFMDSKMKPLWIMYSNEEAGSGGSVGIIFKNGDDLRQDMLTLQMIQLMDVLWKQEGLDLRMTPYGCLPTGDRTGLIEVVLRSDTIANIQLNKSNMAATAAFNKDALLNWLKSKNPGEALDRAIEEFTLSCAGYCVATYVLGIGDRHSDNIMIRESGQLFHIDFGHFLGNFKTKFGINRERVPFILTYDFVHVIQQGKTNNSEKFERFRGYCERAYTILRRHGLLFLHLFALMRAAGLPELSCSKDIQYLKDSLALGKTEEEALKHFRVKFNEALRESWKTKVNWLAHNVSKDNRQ
Sequence of P110 δ/Pi3K δ (P27986 whole entry partner, canonical isoform): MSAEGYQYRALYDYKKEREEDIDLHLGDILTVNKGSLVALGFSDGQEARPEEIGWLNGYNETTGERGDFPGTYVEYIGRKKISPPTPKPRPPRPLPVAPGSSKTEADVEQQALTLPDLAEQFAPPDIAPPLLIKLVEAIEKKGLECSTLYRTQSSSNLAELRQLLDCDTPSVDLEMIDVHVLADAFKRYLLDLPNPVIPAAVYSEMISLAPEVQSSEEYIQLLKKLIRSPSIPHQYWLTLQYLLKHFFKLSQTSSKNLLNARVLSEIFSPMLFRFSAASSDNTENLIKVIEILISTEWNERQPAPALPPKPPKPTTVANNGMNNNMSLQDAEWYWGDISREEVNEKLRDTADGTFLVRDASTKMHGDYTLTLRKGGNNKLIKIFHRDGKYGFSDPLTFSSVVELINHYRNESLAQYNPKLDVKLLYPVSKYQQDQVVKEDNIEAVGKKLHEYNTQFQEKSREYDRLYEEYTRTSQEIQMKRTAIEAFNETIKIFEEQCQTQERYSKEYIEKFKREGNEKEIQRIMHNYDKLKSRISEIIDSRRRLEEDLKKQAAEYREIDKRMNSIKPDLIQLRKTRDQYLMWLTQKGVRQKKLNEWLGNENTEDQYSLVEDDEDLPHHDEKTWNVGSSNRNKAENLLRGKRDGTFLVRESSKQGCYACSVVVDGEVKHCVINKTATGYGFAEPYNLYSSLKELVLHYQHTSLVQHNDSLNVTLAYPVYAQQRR

`Nc1ncnc2c1ncn2Cc1oc2ccccc2c(=O)c1-c1ccccc1F` [Example 33, 2-((6-Amino-9H-purin-9-yl)methyl)-3-(2-fluorophenyl)-4H-chromen-4-one] returned a melting point of 202 to 205 °C. On P110 δ/Pi3K δ, this compound yielded an inhibition at 1 µM of less than 50%.

`COc1cc(F)ccc1-c1nn(C(C)c2oc3ccccc3c(=O)c2-c2cccc(F)c2)c2ncnc(N)c12` (stereo not drawn) [Example 90, 2-(1-(4-amino-3-(4-fluoro-2-methoxyphenyl)-1H-pyrazolo[3,4-d]pyrimidin-1-yl)ethyl)-3-(3-fluorophenyl)-4H-chromen-4-one] returned an inhibition at P110 δ/Pi3K δ of less than 50%. Compound `CC(c1oc2ccccc2c(=O)c1-c1cccc(F)c1)n1nc(C#CCO)c2c(N)ncnc21` (stereo not drawn) [Example 83, 2-(1-(4-amino-3-(3-hydroxyprop-1-ynyl)-1H-pyrazolo[3,4-d]pyrimidin-1-yl)ethyl)-3-(3-fluorophenyl)-4H-chromen-4-one] showed a melting point of 171 to 173 °C. The same compound showed an inhibition against P110 δ/Pi3K δ of 50 to 100%. As for `CC(C)Oc1ccc(F)c(-c2nn(C(C)c3oc4ccccc4c(=O)c3-c3cccc(F)c3)c3ncnc(N)c23)c1` (stereo not drawn) [Example 132, 2-(1-(4-amino-3-(2-fluoro-5-isopropoxyphenyl)-1H-pyrazolo[3,4-d]pyrimidin-1-yl)ethyl)-3-(3-fluorophenyl)-4H-chromen-4-one], the melting point is 198 to 201 °C. The inhibition against P110 δ/Pi3K δ was less than 50%. For the compound `Nc1ncnc2c1c(-c1ccc3cn[nH]c3c1)nn2Cc1oc2ccccc2c(=O)c1-c1ccccc1` [Example 75, 2-((4-amino-3-(1H-indazol-6-yl)-1H-pyrazolo[3,4-d]pyrimidin-1-yl)methyl)-3-phenyl-4H-chromen-4-one], the melting point was in the range of 140 to 143 °C. At P110 δ/Pi3K δ, this compound showed an inhibition at 1 µM of 50 to 100%.

In turn, `COc1ccc(NC(C)c2oc3ccc(F)cc3c(=O)c2-c2cccc(F)c2)cc1` (stereo not drawn) [Example 165, 6-Fluoro-3-(3-fluorophenyl)-2-(1-(4-methoxyphenylamino)ethyl)-4H-chromen-4-one] came in with a melting point of 152 to 156 °C. This compound gave an inhibition at P110 δ/Pi3K δ of less than 50%. `CC(c1oc2ccccc2c(=O)c1-c1cccc(F)c1)n1nc(-c2cnc(N)nc2)c2c(N)ncnc21` (stereo not drawn) [Example 93, 2-(1-(4-amino-3-(2-aminopyrimidin-5-yl)-1H-pyrazolo[3,4-d]pyrimidin-1-yl)ethyl)-3-(3-fluorophenyl)-4H-chromen-4-one]: the melting point was in the range of 264 to 268 °C. The inhibition at P110 δ/Pi3K δ lay in the range of 50 to 100%. The matching figures for `CC(c1oc2ccccc2c(=O)c1-c1cccc(F)c1)n1nc(-c2cc(O)ccc2Cl)c2c(N)ncnc21` (stereo not drawn) [Example 96a, 2-(1-(4-amino-3-(2-chloro-5-hydroxyphenyl)-1H-pyrazolo[3,4-d]pyrimidin-1-yl)ethyl)-3-(3-fluorophenyl)-4H-chromen-4-one]: 192 to 195 °C and 50 to 100%. As for `Nc1ncnc2c1c(-c1cc(O)cc(F)c1)nn2Cc1oc2ccccc2c(=O)c1-c1ccccc1` [Example 66a, 2-((4-amino-3-(3-fluoro-5-hydroxyphenyl)-1H-pyrazolo[3,4-d]pyrimidin-1-yl)methyl)-3-phenyl-4H-chromen-4-one], the melting point was in the range of 260 to 262 °C. Further, the inhibition at 1 µM against P110 δ/Pi3K δ lay within 50 to 100%. The IC50 at P110 δ/Pi3K δ (read-out: P110 δ/Pi3K δ IC 50 nM) was less than 250 nM. On to `CC(c1oc2ccccc2c(=O)c1-c1cccc(F)c1)n1nc(-c2cncnc2)c2c(N)ncnc21` (stereo not drawn) [Example 160, 2-(1-(4-amino-3-(pyrimidin-5-yl)-1H-pyrazolo[3,4-d]pyrimidin-1-yl)ethyl)-3-(3-fluorophenyl)-4H-chromen-4-one], for which the melting point fell in the range of 207 to 211 °C. As for `CC(c1oc2ccccc2c(=O)c1-c1cccc(F)c1)n1nc(-c2csc3ccccc23)c2c(N)ncnc21` (stereo not drawn) [Example 173, 2-(1-(4-amino-3-(benzo[b]thiophen-3-yl)-1H-pyrazolo[3,4-d]pyrimidin-1-yl)ethyl)-3-(3-fluorophenyl)-4H-chromen-4-one], the melting point fell in the range of 226 to 229 °C. Moreover, at P110 δ/Pi3K δ, the inhibition lay within 50 to 100%.

The compound `CC(c1oc2ccccc2c(=O)c1-c1cccc(F)c1)n1nc(-c2cc(O)cc(F)c2)c2c(N)ncnc21` (stereo not drawn) [Example 76a, 2-(1-(4-amino-3-(3-fluoro-5-hydroxyphenyl)-1H-pyrazolo[3,4-d]pyrimidin-1-yl)ethyl)-3-(3-fluorophenyl)-4H-chromen-4-one] had a melting point of 271 to 273 °C. Further, the inhibition at 1 µM against P110 δ/Pi3K δ lay within 50 to 100%. For the compound `Nc1ncnc2c1c(-c1cccc(F)c1)nn2Cc1oc2ccccc2c(=O)c1-c1ccccc1` [Example 63, 2-((4-amino-3-(3-fluorophenyl)-1H-pyrazolo[3,4-d]pyrimidin-1-yl)methyl)-3-phenyl-4H-chromen-4-one], the melting point was 244 to 247 °C. This compound also came in with an inhibition at 1 µM on P110 δ/Pi3K δ of less than 50%. `CC(c1oc2ccccc2c(=O)c1-c1cccc(F)c1)n1nc(-c2ccc(O)c(O)c2)c2c(N)ncnc21` (stereo not drawn) [Example 98, 2-(1-(4-amino-3-(3,4-dihydroxyphenyl)-1H-pyrazolo[3,4-d]pyrimidin-1-yl)ethyl)-3-(3-fluorophenyl)-4H-chromen-4-one]: the melting point lay in the range of 193 to 195 °C. This compound returned an inhibition against P110 δ/Pi3K δ of 50 to 100%. In addition, at P110 δ/Pi3K δ (setting [1]), the IC50 was less than 250 nM. Turning to `COc1cc(-c2nn(C(C)c3oc4ccccc4c(=O)c3-c3cccc(F)c3)c3ncnc(N)c23)ccc1F` (stereo not drawn) [Example 82, 2-(1-(4-amino-3-(4-fluoro-3-methoxyphenyl)-1H-pyrazolo[3,4-d]pyrimidin-1-yl)ethyl)-3-(3-fluorophenyl)-4H-chromen-4-one], the inhibition against P110 δ/Pi3K δ was 50 to 100%.

The compound `CC(C)Oc1ccc(-c2nn(C(C)c3oc4ccccc4c(=O)c3-c3cccc(F)c3)c3ncnc(N)c23)cc1F` (stereo not drawn) [Example 158, 2-(1-(4-amino-3-(3-fluoro-4-isopropoxyphenyl)-1H-pyrazolo[3,4-d]pyrimidin-1-yl)ethyl)-3-(3-fluorophenyl)-4H-chromen-4-one] displayed an inhibition against P110 δ/Pi3K δ of 50 to 100%. Further, the IC50 at P110 δ/Pi3K δ (setting [1]) was less than 250 nM. Compound `CCOc1ccc2cc(-c3nn(C(C)c4oc5ccccc5c(=O)c4-c4cccc(F)c4)c4ncnc(N)c34)ccc2c1` (stereo not drawn) [Example 175, 2-(1-(4-amino-3-(6-ethoxynaphthalen-2-yl)-1H-pyrazolo[3,4-d]pyrimidin-1-yl)ethyl)-3-(3-fluorophenyl)-4H-chromen-4-one] had a melting point of 286 to 290 °C. Turning to `Cc1cccc2c1ncn2Cc1oc2ccccc2c(=O)c1-c1ccccc1` [Example 8, 2-[(4-methyl-1H-benzo[d]imidazol-1-yl)methyl]-3-phenyl-4H-chromen-4-one], the melting point was 204 to 208 °C. Take `Cc1n[nH]c2cc(-c3nn(Cc4oc5ccccc5c(=O)c4-c4ccccc4)c4ncnc(N)c34)ccc12` [Example 92, 2-((4-amino-3-(3-methyl-1H-indazol-6-yl)-1H-pyrazolo[3,4-d]pyrimidin-1-yl)methyl)-3-phenyl-4H-chromen-4-one]: the inhibition against P110 δ/Pi3K δ was 50 to 100%. As to `Cl.O=c1c(-c2ccc(F)cc2)c(CN2CCOCC2)oc2ccc(Br)cc12`, the melting point was 232 to 236 °C. With `Cc1ccccc1-c1c(Cn2cnc3c(N)ncnc32)oc2ccc(Br)cc2c1=O` [Example 19, 2-[(6-Amino-9H-purin-9-yl)methyl]-6-bromo-3-o-tolyl-4H-chromen-4-one], the melting point lay within 252 to 255 °C. In turn, `CC(c1oc2ccccc2c(=O)c1-c1cccc(F)c1)n1nc(-c2cnn(C)c2)c2c(N)ncnc21` (stereo not drawn) [Example 164, 2-(1-(4-amino-3-(1-methyl-1H-pyrazol-4-yl)-1H-pyrazolo[3,4-d]pyrimidin-1-yl)ethyl)-3-(3-fluorophenyl)-4H-chromen-4-one] came in with an inhibition against P110 δ/Pi3K δ of less than 50%.

As to `CC(c1oc2ccccc2c(=O)c1-c1cccc(F)c1)n1nc(-c2ccc(F)cc2O)c2c(N)ncnc21` (stereo not drawn) [Example 90a, 2-(1-(4-amino-3-(4-fluoro-2-hydroxyphenyl)-1H-pyrazolo[3,4-d]pyrimidin-1-yl)ethyl)-3-(3-fluorophenyl)-4H-chromen-4-one], the melting point was 235 to 237 °C. Turning to `CC(c1oc2ccccc2c(=O)c1-c1cccc(F)c1)n1nc(-c2ccc(F)c(O)c2)c2c(N)ncnc21` (stereo not drawn) [Example 82a, 2-(1-(4-amino-3-(4-fluoro-3-hydroxyphenyl)-1H-pyrazolo[3,4-d]pyrimidin-1-yl)ethyl)-3-(3-fluorophenyl)-4H-chromen-4-one], the melting point lay in the range of 241 to 244 °C. As to `Cl.O=c1c(-c2ccccc2)c(CN2CCOCC2)oc2ccc(Br)cc12`, the melting point fell in the range of 229 to 230 °C. On the same count and under the same terms, under `O=c1c(-c2ccccc2)c(Cn2cnc3ccccc32)oc2ccc(Br)cc12` [Example 5, 2-[(1H-Benzo[d]imidazol-1-yl)methyl]-6-bromo-3-phenyl-4H-chromen-4-one] stands 192 to 197 °C. On to `CC(c1oc2ccccc2c(=O)c1-c1cccc(F)c1)n1nc(-c2cc(F)c(O)c(F)c2)c2c(N)ncnc21` (stereo not drawn) [Example 126a, 2-(1-(4-amino-3-(3,5-difluoro-4-hydroxyphenyl)-1H-pyrazolo[3,4-d]pyrimidin-1-yl)ethyl)-3-(3-fluorophenyl)-4H-chromen-4-one], for which, on P110 δ/Pi3K δ, the inhibition is less than 50%.
